# System: SEM cells
# Assay: cell viability relative to DMSO control; higher = less cytotoxic
# Settings: 48 h
# In short: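 In 1536-well plates, 5 μl of leukemia cells were seeded per well: 500 cells/well for NOMO1 or SEM and 1000 cells/well for P12-Ichikawa. Each line had first been adapted for at least four passages in each medium. Library compounds in DMSO were pin-dosed at 11 threefold concentrations between 47 μM and 0.79 nM, and CellTiter-Glo One luminescence was read after 48 h at 37°C. Viability is a per-plate percentage relative to DMSO wells, with cell-free wells as background.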
# [1] = HPLM + 10% dialyzed FBS, 0.000781 µM
# [2] = HPLM + 10% dialyzed FBS, 0.00234 µM
# [3] = HPLM + 10% dialyzed FBS, 0.00702 µM
# [4] = HPLM + 10% dialyzed FBS, 0.0211 µM
# [5] = HPLM + 10% dialyzed FBS, 0.0632 µM
# [6] = HPLM + 10% dialyzed FBS, 0.19 µM
# [7] = HPLM + 10% dialyzed FBS, 0.569 µM
# [8] = HPLM + 10% dialyzed FBS, 1.71 µM
# [9] = HPLM + 10% dialyzed FBS, 5.12 µM
# [10] = HPLM + 10% dialyzed FBS, 15.4 µM
# [11] = HPLM + 10% dialyzed FBS, 46.1 µM
# [12] = RPMI 5 mM glucose + 10% FBS, 0.000781 µM
# [13] = RPMI 5 mM glucose + 10% FBS, 0.00234 µM
# [14] = RPMI 5 mM glucose + 10% FBS, 0.00702 µM
# [15] = RPMI 5 mM glucose + 10% FBS, 0.0211 µM
# [16] = RPMI 5 mM glucose + 10% FBS, 0.0632 µM
# [17] = RPMI 5 mM glucose + 10% FBS, 0.19 µM
# [18] = RPMI 5 mM glucose + 10% FBS, 0.569 µM
# [19] = RPMI 5 mM glucose + 10% FBS, 1.71 µM
# [20] = RPMI 5 mM glucose + 10% FBS, 5.12 µM
# [21] = RPMI 5 mM glucose + 10% FBS, 15.4 µM
# [22] = RPMI 5 mM glucose + 10% FBS, 46.1 µM
# [23] = RPMI 5 mM glucose + 10% dialyzed FBS, 0.000781 µM
# [24] = RPMI 5 mM glucose + 10% dialyzed FBS, 0.00234 µM
# [25] = RPMI 5 mM glucose + 10% dialyzed FBS, 0.00702 µM
# [26] = RPMI 5 mM glucose + 10% dialyzed FBS, 0.0211 µM
# [27] = RPMI 5 mM glucose + 10% dialyzed FBS, 0.0632 µM
# [28] = RPMI 5 mM glucose + 10% dialyzed FBS, 0.19 µM
# [29] = RPMI 5 mM glucose + 10% dialyzed FBS, 0.569 µM
# [30] = RPMI 5 mM glucose + 10% dialyzed FBS, 1.71 µM
# [31] = RPMI 5 mM glucose + 10% dialyzed FBS, 5.12 µM
# [32] = RPMI 5 mM glucose + 10% dialyzed FBS, 15.4 µM
# [33] = RPMI 5 mM glucose + 10% dialyzed FBS, 46.1 µM
SMILES,cell viability [1] [%],cell viability [2] [%],cell viability [3] [%],cell viability [4] [%],cell viability [5] [%],cell viability [6] [%],cell viability [7] [%],cell viability [8] [%],cell viability [9] [%],cell viability [10] [%],cell viability [11] [%],cell viability [12] [%],cell viability [13] [%],cell viability [14] [%],cell viability [15] [%],cell viability [16] [%],cell viability [17] [%],cell viability [18] [%],cell viability [19] [%],cell viability [20] [%],cell viability [21] [%],cell viability [22] [%],cell viability [23] [%],cell viability [24] [%],cell viability [25] [%],cell viability [26] [%],cell viability [27] [%],cell viability [28] [%],cell viability [29] [%],cell viability [30] [%],cell viability [31] [%],cell viability [32] [%],cell viability [33] [%]
COc1cc(N2CCC(N3CCN(C)CC3)CC2)ccc1Nc1ncc(Cl)c(Nc2ccccc2[S+](=O)([O-])C(C)C)n1,50.9,55.6,75.8,89.1,127,84.1,89.4,19.3,22,17.5,13.6,48.1,57.5,93.2,105,117,84.1,72.7,16.1,12.9,8.26,4.14,58.8,63.1,86.6,117,119,86.2,90.1,17.8,14.9,15,11.9
Clc1ccc(C(c2ccccc2Cl)C(Cl)Cl)cc1 (centres undefined),119,116,120,121,139,36.1,117,126,33.2,109,85.9,116,121,111,110,112,36.7,137,106,12.6,97.6,75.1,,,,,,,,,,,
CCOC(=O)c1c(CSc2ccccc2)n(C)c2cc(Br)c(O)c(CN(C)C)c12,89.7,94.8,96.4,109,96.2,102,97.3,103,82.5,108,88.6,107,114,109,103,104,128,125,129,103,101,63.7,94.9,114,101,104,111,97.5,94.7,109,113,109,70.5
c1cc2c(cc1[C@H]1OC[C@H]3[C@@H]1CO[C@@H]3c1ccc3c(c1)OCO3)OCO2,113,105,119,123,126,119,126,110,119,108,92.4,124,102,117,129,131,135,117,113,107,100,103,108,115,144,130,113,140,130,132,103,118,86.4
NCCOc1cc(C(=O)Nc2cc(OCCN)c3ccccc3n2)nc(C(=O)Nc2cc(OCCN)c3ccccc3n2)c1,47.6,56.1,36.1,23.8,19.4,22.9,22.8,21.5,22.2,31.1,46.3,23.9,19.8,23.7,21.1,22.1,23.6,23.2,19.3,27.5,32.6,61.1,67.3,58.4,42.6,25.6,22.9,20,22.9,25.4,21.7,38.2,59.5
CCCCN1CCC(CNC(=O)c2c3n(c4ccccc24)CCCO3)CC1,81.3,85.3,92.1,90.9,94.5,57.7,117,107,108,89.7,68.4,84.9,102,112,91.3,117,75.3,105,118,113,93.5,80.6,105,101,110,94.4,111,67.5,103,103,115,79,79.8
O=C1c2ccccc2-c2n[nH]c3cccc1c23,82.9,101,121,97.9,99,104,5.3,102,112,76.8,37.4,82,107,97.3,103,106,107,6.25,98.2,90.5,63.6,21.2,86.6,93.9,99.1,105,91,116,5.93,92.9,103,67.4,26.7
O=C(Nc1cccnc1)N1CCC(Cc2cccc(Oc3ccc(C(F)(F)F)cn3)c2)CC1,42,94.2,83.5,95.1,117,88.7,94.3,69.6,49.3,11.2,9,46.8,92.7,81.5,89.8,100,88.4,64.9,57.1,35.8,6.35,4.68,37.7,91.2,81.1,78.1,98.4,91.1,86.9,58.1,34.7,14.4,8.02
COCCCC/C(=N\OCCN)c1ccc(C(F)(F)F)cc1,86.4,100,75.7,80.8,92,76.1,83.9,96.9,75.4,77,28.1,94.3,86.1,79.7,94.5,92.7,85.9,87.2,92,74.6,73.7,35.6,105,103,88.7,95.8,111,100,91.6,106,99.4,93.1,52.3
O=C(NOCC1CC1)c1ccc(F)c(F)c1Nc1ccc(I)cc1Cl,91,87.8,109,113,99.7,99.5,113,116,95.8,75.5,77.1,95.8,93.7,112,108,94.7,93.8,106,94.2,85.5,67.3,53.1,101,89.9,115,104,102,78.2,103,89.6,84.8,59.7,59.7
CO[C@H]1C[C@@H]2CC[C@@H](C)[C@@](O)(O2)C(=O)C(=O)N2CCCC[C@H]2C(=O)O[C@H]([C@@H](C)C[C@@H]2CC[C@@H](O)[C@H](OC)C2)CC(=O)[C@H](C)/C=C(\C)[C@@H](O)[C@@H](OC)C(=O)[C@H](C)C[C@H](C)/C=C/C=C/C=C/1C,95.4,95.3,88,83.2,86.9,81.7,81.9,74.2,80.1,79.5,61.3,98.6,84.3,89.4,94.9,80.6,77.3,75.7,80.7,68,70.6,60.6,96.9,87.2,102,85.7,89.8,81.3,85.5,84.4,81.6,81.7,52.6
Cc1nc(-c2ccc(-c3ccc(C(=O)N4CCc5cc6c(cc54)C4(CCN(C)CC4)CO6)cc3)c(C)c2)no1,88.4,104,108,106,119,97.4,114,108,117,136,123,114,102,107,105,99.3,112,114,101,117,107,113,108,99.7,103,95.4,92.5,96,104,96.5,92.8,100,103
O=C(CCCN1CCC(O)(c2ccc(Cl)cc2)CC1)c1ccc(F)cc1,86.5,93.9,75.6,106,113,94.8,25.8,43.8,90.2,102,98.3,100,109,82.6,101,113,117,20.9,47.2,117,110,89.6,101,106,95.5,110,123,120,30.6,43,122,122,101
O=C1\C=C(OC2=C(C=CC=C12)C3=CC=CC4=C3SC5=C4C=CC=C5)\N6CCOCC6,110,103,121,120,124,115,107,104,96.9,89.9,91.2,133,104,105,138,109,112,112,114,73,60.2,62.7,129,109,116,123,116,123,122,113,78.5,75.7,76
Cc1ccc(C(=O)Nc2ccc([S+](=O)([O-])O)c3cc([S+](=O)([O-])O)cc([S+](=O)([O-])O)c23)cc1NC(=O)c1cccc(NC(=O)Nc2cccc(C(=O)Nc3cc(C(=O)Nc4ccc([S+](=O)([O-])O)c5cc([S+](=O)([O-])O)cc([S+](=O)([O-])O)c45)ccc3C)c2)c1,96.8,105,96.2,100,115,91.4,101,93.8,68.5,44.4,33.1,109,128,120,121,113,112,100,115,52.7,21.2,22.7,85,97.2,100,88.6,98.4,86,94.9,86.5,55.1,23.9,23.7
